Calls of active or inactive are those of the source. The rule behind the calls is not given here.

Results on 30 compounds are retold here after ChEMBL document CHEMBL4390655, “N,N-bis-heteroaryl methylamines: Potent anti-mitotic and highly cytotoxic agents” (Eur J Med Chem, 2019).

Series [1] in a line: Inhibition of sheep brain tubulin polymerization in presence of GTP by DAPI based fluorimetric method. The arrangement: species or system Ovis aries.
The test system of series [2] is HCT-116. In words: Cytotoxicity against human HCT116 cells assessed as reduction in cell growth measured after 72 hrs by MTS assay. The class given is functional, cell-based.
The subject of the next series is A2780. Put plainly: Cytotoxicity against human A2780 cells assessed as reduction in cell growth measured after 72 hrs by MTS assay. The class given is functional, cell-based. The note with it: A2780, 72 h.
A short description of series [3]: Cytotoxicity against human A2780R cells assessed as reduction in cell growth measured after 72 hrs by MTS assay. The class given is functional, cell-based.
A further series has as its system MIA PaCa-2. Put plainly: Cytotoxicity against human MIAPaCa2 cells assessed as reduction in cell growth measured after 72 hrs by MTS assay. The class given is functional, cell-based. The note with it: MIA PaCa-2, 72 h.
Another series deals with K562. Put plainly: Cytotoxicity against human K562 cells assessed as reduction in cell growth measured after 72 hrs by MTS assay. The class given is functional, cell-based. The conditions noted are these: K562, 72 h.
In a further series the test system is K-562R. In words: Cytotoxicity against human K562R cells assessed as reduction in cell growth measured after 72 hrs by MTS assay. The class given is functional, cell-based.
Another series concerns JIMT-1. In words: Cytotoxicity against human JIMT1 cells assessed as reduction in cell growth measured after 72 hrs by MTS assay. The class given is functional, cell-based. The note with it: JIMT-1, 72 h.
Series [4] has as its system HCT-116. Put plainly: Cell cycle arrest in human HCT116 cells assessed as accumulation at G2/M phase incubated for 24 hrs by propidium iodide staining based flow cytometry. The class given is functional.
The subject of series [5] is HCT-116. Put plainly: Induction of apoptosis in human HCT116 cells assessed as caspase-3/7 activation at 0.1 to 10 nM after 24 hrs by Apo-one caspase 3/7 assay. The class given is functional, cell-based.
The test system of series [6] is HUVEC. Put plainly: Antivascular activity against HUVEC assessed as reduction in capillary like tube formation by measuring disruption of cell network integrity at 10 nM measured up to 5 hrs by matrigel method relative to control. The class given is functional, cell-based. The conditions noted are these: Homo sapiens.
The nature of series [7]: Antiproliferative activity against HUVEC assessed as growth inhibition after 72 hrs. The class given is cell-based. The conditions noted are these: human, HUVEC cells.
Series [8] concerns HCT-116. In words: Cell cycle arrest in human HCT116 cells assessed as accumulation at G0/G1 phase at 5 nM incubated for 24 hrs by propidium iodide staining based flow cytometry (reference value: 37%). The class given is functional.
The test system of series [9] is HCT-116. Put plainly: Cell cycle arrest in human HCT116 cells assessed as accumulation at G0/G1 phase at 10 nM incubated for 24 hrs by propidium iodide staining based flow cytometry (reference value: 37%). The class given is functional.
The subject of series [10] is HCT-116. Put plainly: Cell cycle arrest in human HCT116 cells assessed as accumulation at G0/G1 phase at 1 nM incubated for 24 hrs by propidium iodide staining based flow cytometry (reference value: 37%). The class given is functional.
Series [11] concerns HCT-116. In words: Cell cycle arrest in human HCT116 cells assessed as accumulation at S phase at 10 nM incubated for 24 hrs by propidium iodide staining based flow cytometry (reference value: 40%). The class given is functional.
In series [12] the test system is HCT-116. Put plainly: Cell cycle arrest in human HCT116 cells assessed as accumulation at S phase at 5 nM incubated for 24 hrs by propidium iodide staining based flow cytometry (reference value: 40%). The class given is functional.
Series [13] has as its system HCT-116. Put plainly: Cell cycle arrest in human HCT116 cells assessed as accumulation at S phase at 1 nM incubated for 24 hrs by propidium iodide staining based flow cytometry (reference value: 40%). The class given is functional.
Series [14] concerns HCT-116. Put plainly: Cell cycle arrest in human HCT116 cells assessed as accumulation at G2/M phase at 10 nM incubated for 24 hrs by propidium iodide staining based flow cytometry (reference value: 23%). The class given is functional.
Series [15] concerns HCT-116. Put plainly: Cell cycle arrest in human HCT116 cells assessed as accumulation at G2/M phase at 5 nM incubated for 24 hrs by propidium iodide staining based flow cytometry (reference value: 23%). The class given is functional.
In series [16] the test system is HCT-116. In words: Cell cycle arrest in human HCT116 cells assessed as accumulation at G2/M phase at 1 nM incubated for 24 hrs by propidium iodide staining based flow cytometry (reference value: 23%). The class given is functional.
Series [17] relates to HUVEC. In words: Antiproliferative activity against human HUVEC assessed as growth inhibition up to 5 hrs. The class given is cell-based.
Where [18] appears, read: Homo sapiens, HCT-116, 72 h, read-out: IC50.

With `COc1ccc(N(C)c2cc(C)nc3ccccc23)nc1O`, the IC50 entry in series [1] is “Not Active”; in the series on HCT-116 [2] (setting [18]), 205 nM.

For the compound `Cc1cc(N(C)c2ccc3c(c2)c2ccccc2n3C)c2ccccc2n1`, the IC50 was found to be 0.53 nM in the series on A2780; 1130 nM in [1] (read-out: IC50); 0.07 nM in the series with HCT-116 [2] (setting [18]); 0.54 nM in series [3]; 0.47 nM in the series on MIA PaCa-2; 0.6 nM in the series with K562. The half-inhibitory concentration (IC50) in the series on K-562R stood at 0.28 nM; in the series on JIMT-1 it was 0.36 nM. For the same compound, the Activity entry was “Dose-dependent effect” in the series on HCT-116 [4]; “Dose-dependent effect” in the series on HCT-116 [5]; 8% in the series with HCT-116 [8]; 0% in the series on HCT-116 [9]; 35% with HCT-116 [10]; 18% in the series on HCT-116 [11]. Also, the Activity with HCT-116 [12] is 12%; with HCT-116 [13], 40%; with HCT-116 [14] it was 82%; with HCT-116 [15], 80%; in the series with HCT-116 [16] it was 25%; in the series with HUVEC [17] it was “Non-Toxic”. For the same compound, the result in the series with HUVEC [6] was Active. Moreover, the GI50 at 72 h in [7] was 3.23 nM.

For the compound `COc1ccc(N(C)c2cc(C)nc3ccccc23)nc1Cl`, the values for the 50% inhibitory concentration (IC50) entry (in [1]; with HCT-116 [2] (setting [18])) were “Not Active” and 462 nM, respectively.

As to `Cc1cc(N(C)c2ccc3c(c2)c2ccccc2n3C)c2cc(N)ccc2n1`, the figures for the IC50 (in series [1] (read-out: IC50); with HCT-116 [2] (setting [18])) were 5760 nM and 24.5 nM, respectively.

With `CN(c1ccc2c(c1)c1ccccc1n2C)c1cc(C#N)nc2ccccc12`, the 50% inhibitory concentration (IC50) was 1400 nM in series [1] (read-out: IC50) and 12 nM in the series with HCT-116 [2] (setting [18]).

Regarding `CN(c1ccc2c(ccn2C)c1)c1cc(C(F)(F)F)nc2ccccc12`, the results for the 50% inhibitory concentration (IC50) (in [1] (read-out: IC50); in the series with HCT-116 [2] (setting [18])) were 2500 nM and 3.28 nM, respectively.

On to `Cc1cc(N(C)c2ccc3c(ccn3C)c2)c2ccccc2n1`, for which the values for the IC50 (in series [1] (read-out: IC50); in the series on HCT-116 [2] (setting [18])) were 1340 nM and 2 nM, respectively.

`Cc1nc(N(C)c2ccc3c(c2)c2ccccc2n3C)c2ccccc2n1`: the concentration for half-maximal inhibition (IC50) in series [1] (read-out: IC50) is 3800 nM; in the series on HCT-116 [2] (setting [18]) it was 2.4 nM.

Consider `Cc1cc(N(C)c2ccc3c(c2)c2cc(C(C)O)ccc2n3C)c2ccccc2n1` (stereo not given), for which the half-maximal inhibitory concentration (IC50) result in series [1] was “Not Active”; with HCT-116 [2] (setting [18]) it was 219 nM.

For the compound `Cc1cc(N(C)c2ccc3c(c2)c2ccccc2n3C)c2cc([N+](=O)[O-])ccc2n1`, the results for the IC50 entry (in [1]; in the series with HCT-116 [2] (setting [18])) were “Not Active” and 623 nM, respectively.

As for `CN(c1ccc2c(c1)c1ccccc1n2C)c1nc(Cl)nc2ccccc12`, the IC50 was determined as 3140 nM in series [1] (read-out: IC50) and 1.06 nM with HCT-116 [2] (setting [18]).

As to `C=C(c1cc(N(C)c2cc(C)nc3ccccc23)ccc1OC)c1cc(C)nc2ccccc12`, the IC50 entry in [1] is “Not Active”; with HCT-116 [2] (setting [18]), 969 nM.

As for `Cc1cc(N(C)c2ccc3c(c2)c2ccccc2n3Cc2ccccc2)c2ccccc2n1`, the IC50 result (in [1]; in the series with HCT-116 [2] (hct-116)) was “Not Active” each time.

On to `COc1ccc(N(C)c2cc(C)nc3ccccc23)nc1N`, for which the IC50 in series [1] (read-out: IC50) was 900 nM; with HCT-116 [2] (setting [18]) it was 1.73 nM.

Consider `Cc1cc(N(C)c2ccc3c(c2)OCCO3)c2ccccc2n1`, for which the figures for the concentration for half-maximal inhibition (IC50) (in series [1] (read-out: IC50); in the series on HCT-116 [2] (setting [18])) were 4080 nM and 20.7 nM, respectively.

Turning to `CN(c1ccc2c(c1)c1ccccc1n2C)c1cc(Cl)nc2ccccc12`, the values for the IC50 (in series [1] (read-out: IC50); in the series with HCT-116 [2] (setting [18])) were 1160 nM and 16.7 nM, respectively.

In the case of `Cc1cc(N(C)c2ccc3c(c2)c2ccccc2n3C)c2cccc(O)c2n1`, the half-maximal inhibitory concentration (IC50) is 1240 nM in [1] (read-out: IC50) and 50.6 nM in the series with HCT-116 [2] (setting [18]).

As to `Cc1cc(N(C)c2ccc3[nH]c4ccccc4c3c2)c2ccccc2n1`, the IC50 result (in [1]; with HCT-116 [2] (hct-116)) was “Not Active” in each case.

Regarding `COc1ccc2c(ccn2-c2cc(C)nc3ccccc23)c1`, the IC50 result in series [1] was “Not Active”; in the series with HCT-116 [2] (setting [18]) it was 482 nM.

For `COc1cccc2c(N(C)c3ccc4c(c3)c3ccccc3n4C)cc(C)nc12`, the IC50 in series [1] (read-out: IC50) came to 1480 nM; in the series with HCT-116 [2] (setting [18]) it was 21.6 nM.

As for `Cc1cc(N(C)c2ccc3oc4ccccc4c3c2)c2ccccc2n1`, the half-inhibitory concentration (IC50) entry was “Not Active” in series [1] and 844 nM in the series with HCT-116 [2] (setting [18]).

For the compound `Cc1cc(N(C)c2ccc3c(c2)c2cc([N+](=O)[O-])ccc2n3C)c2ccccc2n1`, the IC50 result (in series [1]; with HCT-116 [2] (hct-116)) was “Not Active” in each case.

Take `CCn1c2ccccc2c2cc(N(C)c3cc(C)nc4ccccc34)ccc21`: the half-inhibitory concentration (IC50) entry in [1] is “Not Active”; in the series on HCT-116 [2] (setting [18]), 186 nM.

Regarding `CN(c1ccc2c(ccn2C)c1)c1nc(Cl)nc2ccccc12`, the IC50 came out at 0.24 nM in the series with A2780; 1190 nM in series [1] (read-out: IC50); 0.2 nM in the series with HCT-116 [2] (setting [18]); 2.34 nM in series [3]; 0.62 nM with MIA PaCa-2; 0.77 nM in the series with K562. In addition, the IC50 is 1.77 nM in the series with K-562R and 0.52 nM in the series with JIMT-1.

On to `CN(c1ccc2c(c1)c1ccccc1n2C)c1ccnc2ccccc12`, for which the IC50 result in [1] is “Not Active”; in the series with HCT-116 [2] (setting [18]), 943 nM.

On to `CN(c1ccc2c(c1)c1ccccc1n2C)c1cc(C(F)(F)F)nc2ccccc12`, for which the IC50 result in series [1] was “Not Active”; with HCT-116 [2] (setting [18]), 847 nM.

In the case of `Cc1cc(N(C)c2ccc3c(c2)c2cc(N)ccc2n3C)c2ccccc2n1`, the figures for the IC50 (in [1] (read-out: IC50); in the series on HCT-116 [2] (setting [18])) were 2760 nM and 2.88 nM, respectively.

With `C=C(c1ccc(OC)c(O)c1)c1cc(OC)c(OC)c(OC)c1`, the 50% inhibitory concentration (IC50) in the series on A2780 is 3.01 nM; in series [1] (read-out: IC50) it was 1000 nM; with HCT-116 [2] (setting [18]), 1.8 nM; in [3] it was 2.66 nM; in the series on MIA PaCa-2, 5 nM; with JIMT-1, 3.08 nM.

For the compound `Cc1cc(N(C)c2ccc3c(c2)c2ccccc2n3C)ccn1`, the IC50 result in series [1] was “Not Active”; in the series with HCT-116 [2] (setting [18]), 879 nM.

`Cn1c2ccccc2c2cc([N+](C)(C)c3ccnc4ccccc34)ccc21.[I-]`: the half-maximal inhibitory concentration (IC50) entry was “Not Active” in [1] and 891 nM in the series on HCT-116 [2] (setting [18]).
